According to patent publication US9181234B2, “Antibacterial compounds” (priority 2010, dated 2015):
≈ marks a conversion by molar mass, not a printed value.

Columns and labels:
[1] = tested on: Streptococcus pyogenes (Isolate ID ATCC 51339); assay: Antibacterial activity, MIC, S. pyogenes; format: cell-based; conditions: broth microdilution or agar dilution; for MIC: Streptococcus pyogenes, ATCC51339, Gram positive strain; for Antibacterial Activity (MIC) S. pyogenes (ATCC 51339): Gram positive strain
Protocol: (§1) Bacterial Assay: Determination of Antibacterial Activity
(§2) Compounds of the invention were tested for antimicrobial activity by susceptibility testing in liquid or on solid media. MICs for compounds against each strain were determined by the broth microdilution or agar dilution method according to the guidelines of the Clinical Laboratories and Standards Institute, formerly the National Committee for Clinical Laboratory Standards (Clinical Laboratories and Standards Institute. Methods for Dilution Antimicrobial Susceptibility Tests for Bacteria That Grow Aerobically; Approved Standard—Seventh Edition. Document M7-A7. CLSI, Wayne, Pa., 2006; Clinical Laboratories and Standards Institute. The gram positive bacterial strains tested include S. aureus (Staphylococcus aureus (Isolate ID ATCC 29213)), E. faecalis (Enterococcus faecalis (Isolate ID ATCC 29212)) and S. pyogenes (Streptococcus pyogenes (Isolate ID ATCC 51339)). The gram negative bacterial strains tested include H. influenzae (Haemophilus influenzae (Isolate ID ATCC 49247))

physchem = conditions: kinetic from dmso stock
Protocol: Turbimetric Assay: Determination of Solubility
The solubility of the compounds was measured using a turbidimetric method. A series of doubling dilutions of compounds were prepared in neat dimethyl sulfoxide (DMSO). 5 μl samples were diluted twenty-fold into 95 μl volumes of 100 mM citrate buffer (pH 4), phosphate buffered saline (PBS, pH 7.4) or carbonate-bicarbonate buffer (pH 9) in microtitre assay plates and allowed to reach equilibrium at room temperature for 24 hours. The absorbance within each well of the plate was read spectrophotometrically at a wavelength of 620 nm. A precipitate forms when the maximum aqueous solubility level is reached. The value quoted is the highest concentration where the compound was in solution i.e. where no measurable precipitate was present. […] ND=not determined

[2] = tested on: Staphylococcus aureus (Isolate ID ATCC 29213); assay: Antibacterial activity, MIC, S. aureus; format: cell-based; conditions: broth microdilution or agar dilution; for MIC: Staphylococcus aureus, ATCC29213, Gram positive strain; for Antibacterial Activity (MIC) S. aureus (ATCC 29213): Gram positive strain
Protocol: as §1, §2

[3] = tested on: Haemophilus influenzae (Isolate ID ATCC 49247); assay: Antibacterial activity, MIC, H. influenzae; format: cell-based; conditions: Gram negative strain, broth microdilution or agar dilution; for MIC: Haemophilus influenzae, ATCC49247
Protocol: as §1, §2

[4] = pH 7.4, aqueous buffer, Max Solubility
[5] = pH 7.4, aqueous buffer, Solubility (pH 7.4)
[6] = pH 7.4, aqueous buffer, Solubility Range
[7] = pH 7.4, aqueous buffer, Solubility Range (maximum solubility)
[8] = pH 9, aqueous buffer, Max Solubility
[9] = pH 9, aqueous buffer, Solubility Range (maximum solubility)

MIC [1] [µg/mL]	solubility at 24 h (physchem; [4]) [µg/mL]	solubility at 24 h (physchem; [5]) [µg/mL]	solubility at 24 h (physchem; [6]) [µg/mL]	solubility at 24 h (physchem; [7]) [µg/mL]	MIC [2] [µg/mL]	MIC [3] [µg/mL]	solubility at 24 h (physchem; [8]) [µg/mL]	solubility at 24 h (physchem; [9]) [µg/mL]	SMILES	Antibacterial Activity (MIC) S. pyogenes (ATCC 51339) [1]	Antibacterial Activity (MIC) S. aureus (ATCC 29213) [2]	Antibacterial Activity (MIC) H. influenzae (ATCC 49247) [3]
≤ 0.25	≥ 800	≥ 800	> 800	> 800	≤ 0.25	1 to 16 (≈ 1.82 to 29.1 µM)	–	–	CCNC(=O)Nc1nc2cc(-c3cnc(N4CCC(C)(C(=O)O)CC4)nc3)cc(-c3ncc(C)cc3F)c2s1 [Compound 93]	–	–	–
1 to 16 (≈ 1.73 to 27.6 µM)	≥ 800	≥ 800	> 800	> 800	1 to 16 (≈ 1.73 to 27.6 µM)	> 16	–	–	CCNC(=O)Nc1nc2cc(-c3cnc(N4CCC(C)(C(=O)O)CC4)nc3)cc(/C(C)=N/OCC(F)(F)F)c2s1 [Compound 94]	–	–	–
0.25 to 1 (≈ 0.502 to 2.01 µM)	≥ 800	≥ 800	> 800	> 800	1 to 16 (≈ 2.01 to 32.2 µM)	> 16	–	–	CCNC(=O)Nc1nc2cc(-c3cnc(N4CCC(C)(C(=O)O)CC4)nc3)cc(/C(C)=N/O)c2s1 [Compound 95]	–	–	–
0.25 to 1 (≈ 0.476 to 1.9 µM)	≥ 800	≥ 800	> 800	> 800	≤ 0.25	1 to 16 (≈ 1.9 to 30.4 µM)	–	–	CCNC(=O)Nc1nc2cc(-c3cnc(N4CCC(C)(C(=O)O)CC4)nc3)cc(/C(C)=N/OCC)c2s1 [Compound 96]	–	–	–
1 to 16 (≈ 1.95 to 31.3 µM)	≥ 800	≥ 800	> 800	> 800	> 16	> 16	–	–	CCNC(=O)Nc1nc2cc(-c3cnc(N4CCC(C)(C(=O)O)CC4)nc3)cc(C(=O)NCC)c2s1 [Compound 97, 1-[5-[7-(Ethylcarbamoyl)-2-(ethylcarbamoylamino)-1,3-benzothiazol-5-yl]pyrimidin-2-yl]-4-methyl-piperidine-4-carboxylic acid]	–	–	–
≤ 0.25	≥ 800	≥ 800	> 800	> 800	≤ 0.25	1 to 16 (≈ 1.9 to 30.4 µM)	–	–	CCNC(=O)Nc1nc2cc(-c3cnc(N4CCC(CC)(C(=O)O)CC4)nc3)cc(/C(C)=N/OC)c2s1 [Compound 116, 4-ethyl-1-[5-[2-(ethylcarbamoylamino)-7-[(E)-N-methoxy-C-methyl-carbonimidoyl]-1,3-benzothiazol-5-yl]pyrimidin-2-yl]piperidine-4-carboxylic acid]	–	–	–
1 to 16 (≈ 1.85 to 29.6 µM)	≥ 800	≥ 800	> 800	> 800	1 to 16 (≈ 1.85 to 29.6 µM)	> 16	–	–	CCNC(=O)Nc1nc2cc(-c3cnc(N4CCC(C)(C(=O)O)CC4)nc3)cc(CN3CCOCC3)c2s1 [Compound 158, 1-[5-[2-(ethylcarbamoylamino)-7-(morpholinomethyl)-1,3-benzothiazol-5-yl]pyrimidin-2-yl]-4-methyl-piperidine-4-carboxylic acid]	–	–	–
> 16	400 (≈ 722 µM)	400 (≈ 722 µM)	400 to 800 (≈ 722 to 1440 µM)	400 to 800 (≈ 722 to 1440 µM)	> 16	> 16	–	–	CCNC(=O)Nc1nc2cc(-c3cnc(N4CCC(C)(C(=O)O)CC4)nc3)cc(C(=O)N3CCOCC3)c2s1 [Compound 159, 1-[5-[2-(ethylcarbamoylamino)-7-(morpholine-4-carbonyl)-1,3-benzothiazol-5-yl]pyrimidin-2-yl]-4-methyl-piperidine-4-carboxylic acid]	–	–	–
≤ 0.25	–	200 (≈ 386 µM)	12.5 to 400 (≈ 24.1 to 771 µM)	–	≤ 0.25	1 to 16 (≈ 1.93 to 30.9 µM)	400 (≈ 771 µM)	400 to 800 (≈ 771 to 1540 µM)	CCNC(=O)Nc1nc2cc(-c3cnc(N4CCC(C)(C(=O)O)CC4)nc3)nc(-c3ccccn3)c2s1 [Compound 162, 1-[5-[2-(ethylcarbamoylamino)-4-(2-pyridyl)thiazolo[5,4-c]pyridin-6-yl]pyrimidin-2-yl]-4-methyl-piperidine-4-carboxylic acid]	–	–	–
≤ 0.25	≥ 800	≥ 800	> 800	> 800	≤ 0.25	1 to 16 (≈ 1.88 to 30.1 µM)	–	–	CCNC(=O)Nc1nc2cc(-c3cnc(N4CCCC(C)(C(=O)O)CC4)nc3)cc(-c3ccccn3)c2s1 (stereo not drawn) [Compound 166]	–	–	–
≤ 0.25	–	200 (≈ 387 µM)	12.5 to 400 (≈ 24.2 to 774 µM)	–	1 to 16 (≈ 1.94 to 31 µM)	> 16	≥ 800	> 800	CCNC(=O)Nc1nc2cc(-c3ccnc(N4CCC(C)(C(=O)O)CC4)c3)cc(-c3ccccn3)c2s1 [Compound 182]	–	–	–
≤ 0.25	≥ 800	≥ 800	> 800	> 800	1 to 16 (≈ 1.68 to 26.9 µM)	1 to 16 (≈ 1.68 to 26.9 µM)	–	–	CCNC(=O)Nc1nc2cc(-c3cnc(N4CCC(C)(C(=O)NS(C)(=O)=O)CC4)nc3)cc(-c3ccccn3)c2s1 [Compound 186]	–	–	–
0.25 to 1 (≈ 0.462 to 1.85 µM)	–	≥ 800	> 800	–	1 to 16 (≈ 1.85 to 29.5 µM)	1 to 16 (≈ 1.85 to 29.5 µM)	≥ 800	> 800	CCNC(=O)Nc1nc2cc(-c3cnc(N4CCC(C)(C(=O)O)CC4)nc3)cc(/C(C)=N/OCCO)c2s1 [Compound 187]	–	–	–
1 to 16 (≈ 1.8 to 28.8 µM)	≥ 800	≥ 800	> 800	> 800	1 to 16 (≈ 1.8 to 28.8 µM)	> 16	–	–	CCNC(=O)Nc1nc2cc(-c3cnc(N4CCC(C)(C(=O)O)CC4)nc3)cc(/C(C)=N/OCCOC)c2s1 [Compound 188]	–	–	–
–	–	–	–	–	–	–	–	–	CCNC(=O)Nc1nc2cc(-c3cnc(N4CCC(CC)(C(=O)O)CC4)nc3)cc(/C=N/OC)c2s1 [Compound 189, 4-Ethyl-1-[5-[2-(ethylcarbamoylamino)-7-[(E)-methoximinomethl]-1,3-benzothiazol-5-yl]pyrimidin-2-yl]piperidine-4-carboxylic acid]	A (“A” activity ≦0.25 μg/mL)	A (“A” activity ≦0.25 μg/mL)	C (“C” activity >1.0 μg/mL-16 μg/mL)
0.25 to 1 (≈ 0.496 to 1.98 µM)	400 (≈ 793 µM)	400 (≈ 793 µM)	400 to 800 (≈ 793 to 1590 µM)	400 to 800 (≈ 793 to 1590 µM)	0.25 to 1 (≈ 0.496 to 1.98 µM)	> 16	–	–	CCNC(=O)Nc1nc2cc(-c3cnc4c(c3)OC(C)(C(=O)O)C(=O)N4)cc(-c3ccccn3)c2s1 (stereo not drawn) [Compound 190, 7-[2-(ethylcarbamoylamino)-7-(2-pyridyl)-1,3-benzothiazol-5-yl]-2-methyl-3-oxo-4H-pyrido[3,2-b][1,4]oxazine-2-carboxylic acid]	–	–	–
1 to 16 (≈ 2.01 to 32.1 µM)	6.25 (≈ 12.5 µM)	6.25 (≈ 12.5 µM)	< 12.5	< 12.5	1 to 16 (≈ 2.01 to 32.1 µM)	1 to 16 (≈ 2.01 to 32.1 µM)	–	–	CCNC(=O)Nc1nc2cc(-c3cnc(N4CCC(C)(C(=O)OCC)CC4)nc3)c(OC)cc2s1 [Compound 191, Ethyl 1-[5-[2-(ethylcarbamoylamino)-6-methoxy-1,3-benzothiazol-5-yl]pyrimidin-2-yl]-4-methyl-piperidine-4-carboxylate]	–	–	–
1 to 16 (≈ 1.99 to 31.8 µM)	–	–	–	–	1 to 16 (≈ 1.99 to 31.8 µM)	> 16	–	–	CCNC(=O)Nc1cn2c(-n3cccn3)cc(-c3cnc(N4CCC(CC)(C(=O)O)CC4)nc3)cc2n1 [Compound 230, 4-ethyl-1-[5-[2-(ethylcarbamoylamino)-5-pyrazol-1-yl-imidazo[1,2-a]pyridin-7-yl]pyrimidin-2-yl]piperidine-4-carboxylic acid]	–	–	–
1 to 16 (≈ 2.04 to 32.7 µM)	–	–	–	–	> 16	–	–	–	CCNC(=O)Nc1cn2c(-n3cccn3)cc(-c3cnc(N4CCC(C)(C(=O)O)CC4)nc3)cc2n1 [Compound 231, 1-[5-[2-(ethylcarbamoylamino)-5-pyrazol-1-yl-imidazo[1,2-a]pyridin-7-yl]pyrimidin-2-yl]-4-methyl-piperidine-4-carboxylic acid]	–	–	–
–	–	–	–	–	–	–	–	–	CCNC(=O)Nc1nc2cc(-c3nc(N4CCC(C)(C(=O)O)CC4)ns3)cc(-c3ccccn3)c2s1 [Compound 233, 1-(5-{2-[(ethylcarbamoyl)amino]-7-(pyridin-2-yl)-1,3-benzothiazol-5-yl}-1,2,4-thiadiazol-3-yl)-4-methylpiperidine-4-carboxylic acid]	B (“B” activity >0.25 μg/mL-1.0 μg/mL)	B (“B” activity >0.25 μg/mL-1.0 μg/mL)	D (“D” activity >16 μg/mL)
